Key:
[1] = target: T1, Recombinant human FEN1 protein (Homo sapiens, UniProt P39748); experiment: fluorescence-based HTS assay for FEN1 inhibitors; assay type: biochemical; conditions: dilution series on each screening plate
T1 construct: made in house
Experimental: reactions containing 50 mM Tris pH 8.0, 10 mM MgCl2, 1 mM DTT and 0.01% Tween-20.
Reactions were incubated at 37 °C for 10 min. To inactivate the enzyme, an equal volume of
stop buffer (90% Formamide, 20 mM EDTA) was added and the mixture was heated at 95 °C
for 10 min. Following separation on a 15% polyacrylamide-urea denaturing gel, substrate
and product bands were visualized by a Typhoon Trio+ Variable Model Imager (Amersham
Bioscience/GE Healthcare, Piscataway, NJ), and the signals were quantified using
ImageQuant software (Molecular Dynamics, GE Healthcare).
Development of HTS assay to isolate novel FEN1 inhibitors: To facilitate the search for
novel FEN1 inhibitors, we have developed a fluorogenic donor/quencher reporter pair to
monitor generation of reaction product in real time (28) (Supplementary Figure S4A ).
Recombinant human FEN1 protein was purified from bacteria as described previously (27).
All oligodeoxynucleotides were purchased from Biosearch Technologies, Inc., (Novato, CA,
USA). The double-stranded DNA substrate containing a double flap region used in the […]
BHQ-2 quencher (which absorbs 6-TAMRA fluorescence when in close proximity) is lost,
and FEN1 activity is measured indirectly as an increase in fluorescence signal (Figure 3).
Kinetic fluorescence data were collected on ViewLux high-throughput CCD imager (Perkin […]
by absence of fluorescence. […]

[2] = tested on: XRCC1 deficient HeLa cells; experiment: FEN1 inhibitor cytotoxicity, XRCC1 deficient HeLa; assay type: cell-based; conditions: vs HeLa control
FEN1 mRNA in A2780 cells = experiment: qRT-PCR FEN1 mRNA expression, A2780; assay type: cell-based, human; conditions: 24 h exposure to cisplatin
Experimental: (1:200, ab26343). Infrared dye-labelled secondary antibodies (Li-Cor) [IRDye 800CW Donkey Anti-Rabbit IgG and IRDye 680CW Donkey Anti-Mouse IgG] were incubated at a dilution of 1:10000 for 1 h. Membranes were scanned with a LiCor Odyssey machine (700 and 800 nm) to determine protein expression. ß-Tubulin or ß-actin was used as a loading controls for the whole cell lysates. GADPH and YYI were used as loading controls to cytoplasmic and nuclear fractions, respectively. First incubation was with FEN1 antibody and then imaged. This was followed by incubation with loading control and then imaged for analysis. Bar charts show means of optical density (O.D.) ± S.D and all data is representative of at least three independent experiments. qRT-PCR analysis of FEN1 gene expre ssion: RNA was extracted using the RNeasy Mini Kit (74104, Qiagen) and quantified using a Nanodrop 2000c (Thermo Fisher Scientific). cDNA synthesis was performed using the RT2 First Strand Kit (330404, Qiagen). Real time PCR was carried out on an Applied Biosystems […] FAST cycler.
Neutral COMET assay: 1.0x10^5 cells per well were seeded in 6 well tissue culture plates and incubated at 37°C and 5% CO2 overnight. […] Fifty comets were scored per sample using Comet Assay III/IV image analysis software (Perceptive Instruments, Bury St Edmonds, UK). […]

T1 sequence (P39748 whole entry): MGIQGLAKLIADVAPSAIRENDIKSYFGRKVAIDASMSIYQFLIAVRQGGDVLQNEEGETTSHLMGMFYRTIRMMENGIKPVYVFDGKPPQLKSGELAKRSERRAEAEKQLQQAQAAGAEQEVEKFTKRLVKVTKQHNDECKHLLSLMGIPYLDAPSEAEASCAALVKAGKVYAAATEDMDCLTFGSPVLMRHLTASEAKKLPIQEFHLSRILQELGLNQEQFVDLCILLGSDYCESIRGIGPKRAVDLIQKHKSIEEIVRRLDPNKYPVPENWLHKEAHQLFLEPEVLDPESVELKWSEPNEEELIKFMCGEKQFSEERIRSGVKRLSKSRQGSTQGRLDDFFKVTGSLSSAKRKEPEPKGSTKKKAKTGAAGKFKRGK

## Cc1csc2c1c(=O)n(O)c(=O)n2-c1ccccc1 [PTPD, 3-hydroxy-5-methyl-1-phenylthieno [2,3 d]pyrimidine-2,4(1H,3H)-dione]
[1]
  inhibition pattern of control dilution series in the screen: uniform inhibition pattern
[2]
  sensitivity to FEN1 inhibitor: did not observe any increased sensitivity

## N.N.[Cl][Pt][Cl] [cisplatin]
FEN1 mRNA in A2780 cells
  FEN1 mRNA expression after cisplatin: transient induction of FEN1 mRNA expression on day 1

— paper PMC8070745, “FEN1 Blockade for Platinum Chemo-Sensitization and Synthetic Lethality in Epithelial Ovarian Cancers” (Cancers, 2021)
